From patent US9872853B2, “2,3-dihydro-1H-indole compounds” (Eli Lilly and Company, priority 2016, dated 2018)
Several values for one entry are separate records, joined by “and”; a condition that tells them apart may be missing. Equal values may be shown once. Read-outs that look alike come from different tables or passages of the source.

Key:
[1] = tested on: L55 tumors; test: L55 humanized tumor model with hPBMC challenge; assay type: in vivo; conditions: for tolerability (body weight): with or without hPBMCs
Description: Grow the human NSCLC cell line, L55, in RPMI 1640 medium supplemented with 10% fetal bovine serum. Harvest sub-confluent cells with trypsin and rinse twice with growth medium lacking serum. Initiate the growth of subcutaneous tumors by injecting 5×10^6 in a 1:1 mixture of HBSS and MATRIGEL® (BD Biosciences, Franklin Lakes, N.J.) in the rear flank of NOD.Cg-Prkdc^scidI12rg^tm1Wjl/SzJ mice more commonly known as NOD scid gamma chain knockout mice (NSG) mice (The Jackson Laboratory, Bar Harbour, Me.), which lack T cells, B cells, NK cells, and are deficient in cytokine signaling. When the mean tumor volume reaches approximately 200-300 mm^3, randomize the animals by tumor size and body weight and place into their respective treatment groups as indicated. After randomization, challenge tumor-bearing mice with PBS alone (no PBMCs) or with PBS containing 1×10^7 human PBMCs into the tail vein of recipients.
(§1) Capture tumor size and body weight using Study Director. Estimate tumor volume (V) by using the formula: V=0.536×L×W^2 where L=larger measured diameter and W=smaller of the perpendicular diameter. Transform the tumor volume data to a log scale to equalize variance across time and treatment groups. Analyze the log volume data with a two-way repeated measures analysis of variance by time and treatment using the MIXED procedures in SAS software (Version 9.2). The correlation model for the repeated measures is Spatial Power. Compare treated groups to the control group at each time point. Use the MIXED procedure also separately for each treatment group to calculate adjusted means and standard errors at each time point. Both analyses account for the autocorrelation within each animal and for the loss of data that occurs when animals with large tumors are removed from the study early. Calculate relative changes in tumor volume (% T/C) using the tumor volume measurements taken nearest to the last day of dosing with Example 1A, using the formula % T/C=100×ΔT/ΔC, where T=mean tumor volume of the compound treated group, ΔT=mean tumor volume of the compound treated group minus the mean tumor volume on the baseline day, C=mean tumor volume of the control (vehicle) group, and ΔC=mean tumor volume of the control group minus the mean tumor volume on the baseline day. If ΔT<0, then a tumor regression value is calculated instead of % T/C whereby % Regression=100×ΔT/Tinitial such that Tinitial=mean tumor volume on the baseline day.
(§2) Assess antitumor efficacy of Example 1A and LY3300054 alone, or in combination by measuring tumor volume by three dimensional caliper measurements twice a week during the course of the study. Measure body weight twice weekly during the course of the study, as a general indicator of tolerability.
(§3) Formulations for Example 1A and LY3300054: Formulate Example 1A on a weekly basis in 1% HEC/0.25% Tween 80/0.05% Antifoam and store at 4° C. Solublize LY3300054 in phosphate buffered saline and store at 4° C.
Control group(s): For single agent efficacy studies, administer vehicle for Example 1A alone. For combination studies, administer both vehicles used for Example 1A and LY3300054 according to the same schedule for each compound, respectively. For monotherapy groups in combination efficacy studies, treat the animals with the desired compound and the vehicle for the compound not being dosed following the schedule for the non-dosed compound. […]

[2] = molecular target: T1, His6-IDO1 (Homo sapiens, UniProt P14902); test: Binding assay for IDO1: competition with a tritiated spy molecule; conditions: displacement of 50 nM tritiated spy molecule, four hours, room temperature
T1 construct: purchased Proteros PR-0278
Experimental: Specifically, this assay assesses the ability of test compounds to compete with a tritiated spy molecule 1-(2,4-difluorophenyl)-3-[[1-(3,4,5-tritritiobenzoyl)indolin-5-yl]methyl]urea and allows for the calculation of the binding affinity, IC50.
Competitive Binding of 1-(2,4-Difluorophenyl)-3-[[1-(3,4,5-tritritiobenzoyl)indolin-5-yl]methyl]urea to IDO1
Load 300 nM His6-IDO1 (Proteros, SwissProtID P14902, Cat# PR-0278, batch 19/59, 98 mg/mL in 25 mM MES pH 6.5, 150 mM KCl, purity >95%) diluted in DPBS to each well of nickel coated plate (Sigma, Cat#55563) and incubate overnight at 4° C. Remove unbound proteins by washing plate with 300 μL DPBS four times in BIOTEK® Microplate Washer. Add 100 μL of blocking buffer (0.05% TWEEN® 20/DPBS) per well and incubate for one hour at room temperature to reduce nonspecific binding. While blocking the plate, prepare 50 nM 1-(2,4-difluorophenyl)-3-[[1-(3,4,5-tritritiobenzoyl)indolin-5-yl]methyl]urea (Biocair, Cat# TRQ41455) by diluting in DPBS, and serially dilute unlabeled stock solution 2.5-fold in DMSO to generate an eleven point dilution curve. […] Quantitate total bound and nonspecific binding (NSB) of the 1-(2,4-difluorophenyl)-3-[[1-(3,4,5-tritritiobenzoyl)indolin-5-yl]methyl]urea ligand using a Trilux Microbeta Counter. […]

[3] = molecular target: T2, IDO1 activity in SKOV3 (Homo sapiens, UniProt P14902); test: Kynurenine production assay (SKOV3); assay type: cell-based; conditions: SKOV3 cells, 18 hours, MS measurement in media
T2 construct: an ovarian cancer cell line that intrinsically expresses IDO1; host or cells: SKOV3 (in vitro); SKOV3X (Indiana University Research and Technology Center) as intraperitoneal xenograft tumours in athymic nude mice
Experimental: The purpose of this assay is to evaluate the inhibition of the production of kynurenine, N-formyl-kynurenine and the depletion of tryptophan in IDO1 expressing cancer cells and assess whether compounds are overtly toxic to these cells. Exemplary compounds are tested for the inhibition of IDO1 activity in SKOV3 (ATCC, Cat# HTB-77), an ovarian cancer cell line that intrinsically expresses IDO1. Due to IDO1 expression, SKOV3 cells degrade tryptophan with the concomitant production of kynurenine and compounds are tested for their ability to inhibit the production of kynurenine, N-formyl-kynurenine and the depletion of tryptophan. Optionally, overt toxicity of compounds can be assessed by monitoring cell viability.
Plate SKOV3 cells, an IDO1-expressing ovarian cancer cell line, at 20,000 cells per well in 100 μL of McCoys 5A media (Gibco, Cat#16600-082) supplemented with non-essential amino acids (Gibco, Cat#11140-050), 1 mM sodium pyruvate (Gibco, Cat#11360-070), and 10% fetal bovine serum, complete media, in a 96 well tissue culture plate (BD Biosciences). Then, incubate cells for 16 hours in a 37° C. incubator with 5% CO2. […] Optionally, return original plate(s) to the incubator for an additional 24 hours and measure the viability of cells by adding an equal volume of CELLTITER-GLO® (Promega) and measure luminescence in an PERKIN ELMER® EnVision plate reader. […]

[4] = tested on: Colon26 tumors; test: Mouse syngeneic Colon26 model for colon cancer; assay type: in vivo, BALB/c mice
Experimental: Grow the mouse BALB/c-derived Colon26 colon cancer cell line in RPMI 1640 medium supplemented with 10 mM HEPES, […] sodium pyruvate, and 10% fetal bovine serum. Harvest sub-confluent cells with trypsin and rinse twice with complete growth medium lacking serum. Initiate subcutaneous tumors by injecting 1×10^6 cells resuspended in HBSS in the rear flank of immune-competent BALB/c mice (Envigo, Indianapolis, Ind.). Six days after tumor implantation, randomize animals based on body weight and place into their respective treatment groups using the number of animals per group as indicated.
as §1, §2, §3
Control group(s): For single agent efficacy studies, administer vehicle for Example 1A alone. For combination studies, administer both vehicles used for Example 1A and LY3300054 according to the same schedule for each compound, respectively. For monotherapy groups in combination efficacy studies, treat the animals with the desired compound and the vehicle for the compound not being dosed following the schedule for the non-dosed compound.
Treat female BALB/c mice (n=10) bearing Colon26 tumors with Example 1A twice daily for 21 days by oral gavage at doses of 10, 50, and 100 mg/kg. Start administration of Example 1A six days after tumor implantation, and monitor tumor growth and body weight twice a week for the duration of the treatment period.

T1 sequence (P14902 whole entry): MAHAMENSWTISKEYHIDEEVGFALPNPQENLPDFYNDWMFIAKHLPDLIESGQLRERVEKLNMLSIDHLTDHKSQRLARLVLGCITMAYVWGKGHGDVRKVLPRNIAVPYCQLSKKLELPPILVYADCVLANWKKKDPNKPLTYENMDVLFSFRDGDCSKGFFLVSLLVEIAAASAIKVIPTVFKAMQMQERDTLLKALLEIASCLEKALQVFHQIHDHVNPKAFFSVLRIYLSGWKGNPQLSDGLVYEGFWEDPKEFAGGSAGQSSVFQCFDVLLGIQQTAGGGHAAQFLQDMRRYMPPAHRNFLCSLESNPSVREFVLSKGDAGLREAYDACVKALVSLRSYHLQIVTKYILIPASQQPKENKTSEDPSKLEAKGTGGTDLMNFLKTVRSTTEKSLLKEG
T2 sequence (P14902 whole entry): as above

Row | Molecule | effect on tumor growth ([1]; 10 mg/kg intraperitoneal once a week for 4 weeks, with hPBMCs, versus vehicle) | change in tumor volume (% T/C) ([1]; 10 mg/kg intraperitoneal once a week, with hPBMCs, day 37, versus vehicle lacking PBMCs) [%] | tolerability (body weight) ([1]; 10 mg/kg intraperitoneal once a week) | IC50 [2] | IC50 ([3]; read-out: IC50 for inhibiting N-formyl-kynurenine) [nM] | IC50 ([3]; read-out: IC50 for inhibiting kynurenine) [nM] | reduction in body weight compared to baseline ([4]; 10 mg/kg twice daily, day 20) [%] | reduction in body weight compared to baseline ([4]; 50 mg/kg twice daily, day 20) [%] | reduction in body weight compared to baseline ([4]; 100 mg/kg twice daily, day 20) [%] | tolerability (body weight changes) ([4]; 10, 50 and 100 mg/kg twice daily for 21 days, versus vehicle-treated mice) | tumor growth inhibition (statistics) ([4]; only 50 and 100 mg/kg doses, day 20) | tumor growth inhibition ([1]; 75 mg/kg twice daily oral, absence of hPBMCs, versus vehicle without PBMCs) | tolerability (body weight) ([1]; 75 mg/kg twice daily oral)
1 | LY3300054: an antibody that binds human PD-L1 (SEQ ID NO: 1), comprising a light chain (LC) and a heavy chain (HC) | statistically significant tumor growth inhibition | 75.7 | No significant tolerability issues |  |  |  |  |  |  |  |  |  | 
2 | C[C@@H](NC(=O)c1ccc(F)cc1)c1ccc2c(c1)CCN2C(=O)C1CCOCC1 (single isomer, unassigned) [Example 1A] |  |  |  | < 1500 nM and 33 nM | 7 | 7 | 2.5 | 8 | 2.5 | no significant tolerability issues | statistically (p<0.001) relevant growth inhibition | did not result in significant tumor growth inhibition | No significant tolerability issues
3 | C[C@H](NC(=O)c1ccc(F)cc1)c1ccc2c(c1)CCN2C(=O)C1CCOCC1 (single isomer, unassigned; isomer 2) [Example 1B] |  |  |  | < 1500 nM |  |  |  |  |  |  |  |  | 
